According to patent US20260271931A1, “HERBICIDAL MIXTURES” (Bayer Aktiengesellschaft, priority 2023, published 2026):
Read-outs that look alike come from different tables or passages of the source.

What was measured:
Format in all cases: in vivo
Bidens pilosa (BIDPI) = experiment: Post-emergence action against weeds, greenhouse pot test, visual rating: Bidens pilosa
Eleusine indica (ELEIN) = experiment: Post-emergence action against weeds, greenhouse pot test, visual rating: Eleusine indica; settings: for pest or weed control at 0.4 g/ha / pest or weed control at […]: Eleusine indica, post-emergence
Experimental: (§1) When the observed efficacies already exceed the formal sum total of the values of the tests with individual applications, they also exceed the expected value according to Colby, which is calculated using the formula below and is likewise regarded as an indication of synergism (cf. S. R. Colby; in Weeds 15 (1967) pp. 20 to 22):
(§2) where: • A=efficacy of the active ingredient (A) in % at an application rate of a [g a.i./ha]; • B=efficacy of the active ingredient (B) in % at an application rate of b [g a.i./ha]; • E^C=expected value of the effect of the combination (A)+(B) in % at the combined application rate a+b [g a.i./ha].
(§3) The observed values (E^A) from the experiments, given suitable low dosages, show an effect of the combinations exceeding the expected values according to Colby (E^C) (Δ).
(§4) Seeds of mono- and dicotyledonous weeds were placed in sandy loam in pots, covered with soil and grown in a greenhouse under good growth conditions (temperature, air humidity, water supply). Two to three weeks after sowing, the test plants were treated at the two- to four-leaf stage with the compositions of the invention. The compositions of the invention, formulated as spray powders or as emulsion concentrates, were sprayed onto the green parts of the plant in various dosages with an application rate equivalent to […] of water. After the test plants had been kept in the greenhouse under optimum growth conditions for 3 weeks, the activity of the preparations was rated visually in comparison to untreated controls.
(§5) 100% efficacy means complete control of the particular weed tested.
(§6) 0% efficacy means zero control of the particular weed tested.
(§7) Expected values according to Colby are reported under E.
(§8) The exceedance of the expected value E is given as Δ (=synergistic effect).
(§9) The rating period is reported in days after application (DAT).

Lolium rigidum (LOLRI) = experiment: Post-emergence action against weeds, greenhouse pot test, visual rating: Lolium rigidum; settings: for pest or weed control at 0.4 g/ha / pest or weed control at […]: Lolium rigidum, 504 h, 21 DAT, read-out: Herbicidal effect [%] on LOLRI 21 DAT
[1] = tested on: Brachiaria platyfylla (BRAPP); experiment: Post-emergence action against weeds, greenhouse pot test, visual rating: Brachiaria platyfylla; settings: for pest or weed control at 0.4 g/ha / pest or weed control at […]: post-emergence
Experimental: as §1, §2, §3, §4, §5, §6, §7, §8, §9

[2] = tested on: Pharbitis purpurea (PHBPU); experiment: Post-emergence action against weeds, greenhouse pot test, visual rating: Pharbitis purpurea; settings: 0.4 g a.i./ha
[3] = tested on: Pharbitis purpurea (PHBPU); experiment: as above
Experimental: as §1, §2, §3, §4, §5, §6, §7, §8, §9

Kochia scoparia (KCHSC) = experiment: Post-emergence action against weeds, greenhouse pot test, visual rating: Kochia scoparia; settings: for pest or weed control at 0.4 g/ha / pest or weed control at […]: Bassia scoparia, post-emergence, 504 h, read-out: Herbicidal effect [%] on KCHSC 21 DAT
Centaurea cyanus (CENCY) [4] = experiment: Post-emergence action against weeds, greenhouse pot test, visual rating: Centaurea cyanus
Experimental: as §1, §2, §3, §4, §5, §6, §7, §8, §9

Centaurea cyanus (CENCY) [5] = experiment: as above; settings: 240 h, read-out: Herbicidal effect [%] on CENCY 10 DAT
[6] = tested on: Sorghum halepense (SORHA); experiment: Post-emergence action against weeds, greenhouse pot test, visual rating: Sorghum halepense
Experimental: as §1, §2, §3, §4, §5, §6, §7, §8, §9

Avena fatua (AVEFA) = experiment: Post-emergence action against weeds, greenhouse pot test, visual rating: Avena fatua; settings: for pest or weed control at […]: Avena fatua, 240 h, 10 DAT, read-out: Herbicidal effect [%] on AVEFA 10 DAT
[7] = tested on: Echinochloa crus-galli (ECHCG); experiment: Post-emergence action against weeds, greenhouse pot test, visual rating: Echinochloa crus-galli
[8] = 504 h, 0.4 g a.i./ha, read-out: Herbicidal effect [%] on ELEIN 21 DAT

For C#CCN1C(=O)C(F)(F)Oc2cc(F)c(-n3c(=O)n(C)c(=S)n(C)c3=O)cc21 [Trifludimoxazin, trifludimoxazin], the “Herbicidal effect [%] on BIDPI 10 DAT” value (Bidens pilosa (BIDPI); 0.4 g a.i./ha) was 60%, the “Herbicidal effect [%] on BIDPI 21 DAT” value (Bidens pilosa (BIDPI); 0.4 g a.i./ha) was 60% and the “Herbicidal effect [%] on ELEIN 10 DAT” value (Eleusine indica (ELEIN); 0.4 g a.i./ha) was 70%. The “Herbicidal effect [%] on ELEIN 21 DAT” value (Eleusine indica (ELEIN); 0.4 g a.i./ha) was 20%, the “Herbicidal effect [%] on LOLRI 10 DAT” value (Lolium rigidum (LOLRI); 0.4 g a.i./ha) was 20% and the “Herbicidal effect [%] on BRAPP 10 DAT” value ([1]; 0.4 g a.i./ha) was 40%. The “Herbicidal effect [%] on BRAPP 21 DAT” value ([1]; 0.4 g a.i./ha) was 0%, the “Herbicidal effect [%] on PHBPU 10 DAT” value [2] was 80% and the “Herbicidal effect [%] on PHBPU 21 DAT” value ([3]; 0.4 g a.i./ha) was 40%. For the same compound, the “Herbicidal effect [%] on KCHSC 10 DAT” value (Kochia scoparia (KCHSC); 0.4 g a.i./ha) was 85%, the “Herbicidal effect [%] on KCHSC 21 DAT” value (Kochia scoparia (KCHSC); 0.4 g a.i./ha) was 60% and the “Herbicidal effect [%] on CENCY 10 DAT” value (Centaurea cyanus (CENCY) [4]; 0.4 g a.i./ha) was 30%.

C#CCN1C(=O)COc2cc(F)c(N3C(=O)C4=C(CCCC4)C3=O)cc21 [Flumioxazin, flumioxazin] showed a pest or weed control at 0.4 g/ha (Eleusine indica (ELEIN); 240 h, 0.4 g a.i./ha, read-out: Herbicidal effect [%] on ELEIN 10 DAT) of 30%, a pest or weed control at 0.4 g/ha (Eleusine indica (ELEIN); [8]) of 0% and a pest or weed control at 0.4 g/ha (Lolium rigidum (LOLRI); 0.4 g a.i./ha) of 0%. For the same compound, the pest or weed control at 0.4 g/ha ([1]; 240 h, 0.4 g a.i./ha, read-out: Herbicidal effect [%] on BRAPP 10 DAT) was 30%, the pest or weed control at 0.4 g/ha ([1]; 504 h, 0.4 g a.i./ha, read-out: Herbicidal effect [%] on BRAPP 21 DAT) was 10% and the “Herbicidal effect [%] on PHBPU 10 DAT” value [2] was 50%. The “Herbicidal effect [%] on PHBPU 21 DAT” value ([3]; 0.4 g a.i./ha) was 30%, the “Herbicidal effect [%] on KCHSC 10 DAT” value (Kochia scoparia (KCHSC); 0.4 g a.i./ha) was 30% and the pest or weed control at 0.4 g/ha (Kochia scoparia (KCHSC); 0.4 g a.i./ha) was 10%.

For CCOC(=O)COc1ncccc1Oc1cc(-n2c(=O)cc(C(C)(F)F)n(C)c2=O)c(F)cc1Cl [Compound A1, ethyl [(3-{2-chloro-5-[4-(1,1-difluoroethyl)-3-methyl-2,6-dioxo-3,6-dihydropyrimidin-1(2H)-yl]-4-fluorophenoxy}pyridin-2-yl)oxy]acetate], the pest or weed control at […] (Centaurea cyanus (CENCY) [5]; 0.15 g a.i./ha) was 15%, the pest or weed control at […] (Centaurea cyanus (CENCY) [5]; 0.45 g a.i./ha) was 40% and the “Herbicidal effect [%] on BIDPI 10 DAT” value (Bidens pilosa (BIDPI); 0.15 g a.i./ha) was 20%. The “Herbicidal effect [%] on BIDPI 21 DAT” value (Bidens pilosa (BIDPI); 0.15 g a.i./ha) was 10%, the “Herbicidal effect [%] on BIDPI 10 DAT” value (Bidens pilosa (BIDPI); 0.45 g a.i./ha) was 57.5% and the “Herbicidal effect [%] on BIDPI 21 DAT” value (Bidens pilosa (BIDPI); 0.45 g a.i./ha) was 30%. For the same compound, the pest or weed control at […] (Eleusine indica (ELEIN); 240 h, 0.15 g a.i./ha, read-out: Herbicidal effect [%] on ELEIN 10 DAT) was 10%, the pest or weed control at […] (Eleusine indica (ELEIN); 240 h, 0.45 g a.i./ha, read-out: Herbicidal effect [%] on ELEIN 10 DAT) was 35% and the pest or weed control at […] (Eleusine indica (ELEIN); 504 h, 0.15 g a.i./ha, read-out: Herbicidal effect [%] on ELEIN 21 DAT) was 5%. The pest or weed control at […] (Eleusine indica (ELEIN); 504 h, 0.45 g a.i./ha, read-out: Herbicidal effect [%] on ELEIN 21 DAT) was 5%, the “Herbicidal effect [%] on LOLRI 10 DAT” value (Lolium rigidum (LOLRI); 0.15 g a.i./ha) was 10% and the “Herbicidal effect [%] on LOLRI 10 DAT” value (Lolium rigidum (LOLRI); 0.45 g a.i./ha) was 15%. The pest or weed control at […] (Lolium rigidum (LOLRI); 0.15 g a.i./ha) was 5%, the pest or weed control at […] (Lolium rigidum (LOLRI); 0.45 g a.i./ha) was 5% and the pest or weed control at […] ([1]; 240 h, 0.15 g a.i./ha, read-out: Herbicidal effect [%] on BRAPP 10 DAT) was 30%. For the same compound, the pest or weed control at […] ([1]; 240 h, 0.45 g a.i./ha, read-out: Herbicidal effect [%] on BRAPP 10 DAT) was 45%, the pest or weed control at […] ([1]; 504 h, 0.15 g a.i./ha, read-out: Herbicidal effect [%] on BRAPP 21 DAT) was 0% and the pest or weed control at […] ([1]; 504 h, 0.45 g a.i./ha, read-out: Herbicidal effect [%] on BRAPP 21 DAT) was 0%. The “Herbicidal effect [%] on PHBPU 10 DAT” value ([3]; 0.15 g a.i./ha) was 20%, the “Herbicidal effect [%] on PHBPU 21 DAT” value ([3]; 0.15 g a.i./ha) was 20% and the “Herbicidal effect [%] on PHBPU 10 DAT” value ([3]; 0.45 g a.i./ha) was 77.5%. The “Herbicidal effect [%] on PHBPU 21 DAT” value ([3]; 0.45 g a.i./ha) was 50%, the “Herbicidal effect [%] on KCHSC 10 DAT” value (Kochia scoparia (KCHSC); 0.15 g a.i./ha) was 5% and the “Herbicidal effect [%] on KCHSC 10 DAT” value (Kochia scoparia (KCHSC); 0.45 g a.i./ha) was 25%. The pest or weed control at […] (Kochia scoparia (KCHSC); 0.15 g a.i./ha) was 0%, the pest or weed control at […] (Kochia scoparia (KCHSC); 0.45 g a.i./ha) was 5% and the “Herbicidal effect [%] on SORHA 10 DAT” value ([6]; 0.15 g a.i./ha) was 47.5%. For the same compound, the “Herbicidal effect [%] on SORHA 21 DAT” value ([6]; 0.15 g a.i./ha) was 49%, the “Herbicidal effect [%] on SORHA 10 DAT” value ([6]; 0.45 g a.i./ha) was 45% and the “Herbicidal effect [%] on SORHA 21 DAT” value ([6]; 0.45 g a.i./ha) was 40%. For the same compound, the “Herbicidal effect [%] on AVEFA 21 DAT” value (Avena fatua (AVEFA); 0.15 g a.i./ha) was 10%, the “Herbicidal effect [%] on AVEFA 21 DAT” value (Avena fatua (AVEFA); 0.45 g a.i./ha) was 20% and the pest or weed control at […] (Avena fatua (AVEFA); 0.15 g a.i./ha) was 5%. The pest or weed control at […] (Avena fatua (AVEFA); 0.45 g a.i./ha) was 20%, the “Herbicidal effect [%] on ECHCG 10 DAT” value ([7]; 0.15 g a.i./ha) was 10% and the “Herbicidal effect [%] on ECHCG 21 DAT” value ([7]; 0.15 g a.i./ha) was 10%. For the same compound, the “Herbicidal effect [%] on ECHCG 10 DAT” value ([7]; 0.45 g a.i./ha) was 25%, the “Herbicidal effect [%] on ECHCG 21 DAT” value ([7]; 0.45 g a.i./ha) was 20% and the “Herbicidal effect [%] on CENCY 21 DAT” value (Centaurea cyanus (CENCY) [4]; 0.15 g a.i./ha) was 15%. For the same compound, the “Herbicidal effect [%] on CENCY 21 DAT” value (Centaurea cyanus (CENCY) [4]; 0.45 g a.i./ha) was 20%.

For C=C[C@]1(C(=O)N[C@H]2CO[C@@H](C(=O)OC)C2)CC(c2cc(F)cc(F)c2)=NO1 (relative stereo) [Icafolin-methyl, methyl rel-(2R,4R)-4-[[(5S)-3-(3,5-difluorophenyl)-5-vinyl-4H-isoxazole-5-carbonyl]amino]tetrahydrofuran-2-carboxylate], the pest or weed control at 0.4 g/ha (Centaurea cyanus (CENCY) [5]; 0.4 g a.i./ha) was 0%, the pest or weed control at 0.4 g/ha (Eleusine indica (ELEIN); [8]) was 0% and the “Herbicidal effect [%] on LOLRI 10 DAT” value (Lolium rigidum (LOLRI); 0.4 g a.i./ha) was 10%. The pest or weed control at 0.4 g/ha (Lolium rigidum (LOLRI); 0.4 g a.i./ha) was 0%, the “Herbicidal effect [%] on PHBPU 10 DAT” value [2] was 0% and the pest or weed control at 0.4 g/ha (Kochia scoparia (KCHSC); 0.4 g a.i./ha) was 0%. The “Herbicidal effect [%] on AVEFA 21 DAT” value (Avena fatua (AVEFA); 0.4 g a.i./ha) was 10%.
